In ChEMBL document CHEMBL5725356, “Anti-fibrotic pyridinones” (2017) one finds EC50 data, which are given here for 35 molecules.

As usually defined, the EC50 is the concentration that produces a half-maximal response.

A short description of this test: ET-1 Assay: Fibroblasts (primary human lung and dermal, HFL-1, 3T3 etc) are seeded in 96-well plates at ~15000 cells/well and serum starved for 0-48 hours. After media exchange, compounds serially diluted in DMSO are added to the cells. After a brief incubation of ~30 min, stimulants (TGFb, serum, LPA etc) are added followed by further incubation for 16-48 hours. Media is then harvested and stored frozen in plate format for later endothelin-1 (ET-1) determination by ELISA. Toxicity measurements are made using the ATPlite kit (Perkin-Elmer). ET-1 is quantified using an ELISA kit (R&D Systems). The amount of ET-1 produced in the assay wells are back-calculated using the ELISA standard. The ability of a compound to inhibit ET-1 production is typically analyzed by fitting dose-response curves to a 4-parameter logistic function to obtain an EC50 value. As to conditions: HFL1.
In the case of `CCn1nnc2c(-c3cn[nH]c3)cn(-c3ccc(OC(F)(F)F)cc3)c(=O)c21`, the half-maximal effective concentration (EC50) is less than 50 µM.
Turning to `O=c1ccc(Br)cn1-c1cccc(F)c1`, the EC50 is greater than 200 µM.
`Cc1cc(-c2ccc(F)cc2)cn(-c2ccc(OC(F)(F)F)cc2)c1=O`: the EC50 result is “in the range around 125 µM”.
The value for `Cc1cn(C)c2c(=O)n(-c3ccc(OC(F)(F)F)cc3)cc(-c3ccc(F)cc3)c12` was less than 50 µM; that for `O=c1cc(OCCN2CCCC2)c(-c2ccc(F)cc2)cn1-c1ccc(OC(F)(F)F)cc1` was less than 50 µM; that for `Cc1ccc(=S)n(-c2ccc(F)cc2)c1` was greater than 200 µM.
The value for `COc1ccc(CN(C)c2cc(=O)n(-c3ccc(OC(F)(F)F)cc3)cc2-c2cnn(C)c2)cc1` was “in the range around 125 µM”; that for `CC(=O)n1cc(-c2ccc(=O)n(-c3ccccc3)c2)cn1` was greater than 200 µM; that for `Cc1cc(=O)n(-c2ccc(OC(F)(F)F)cc2)cc1-c1ccc(-c2cncs2)cc1` was “in the range around 125 µM”.
To `Cc1cc(=O)n(-c2cccc(C(F)(F)F)c2)cc1-c1ccccc1` belongs less than 50 µM; to `CCOc1ccc(-n2cc(Br)ccc2=O)c(C)c1`, greater than 200 µM; to `Cn1cc(-c2cn(-c3ccc(OC(F)(F)F)cc3)c(=O)cc2NC(=O)OCc2ccccc2)cn1`, “in the range around 125 µM”.
Consider `Cc1cc(=O)n(-c2ccc3c(c2)OCO3)cc1-c1ccc(F)cc1`, for which the EC50 was greater than 200 µM.
`Cn1cc(-c2cn(-c3ccc(OC(F)(F)F)cc3)c(=O)c3ncn(Cc4ccccc4)c23)cn1`: the EC50 was greater than 200 µM.
The value for `Cc1cc(=O)n(-c2ccc(OC(F)(F)F)cc2)cc1-c1cccc2c1OC(C)(C)O2` was “in the range around 125 µM”; that for `CCn1ccc2c(-c3cnn(C)c3)cn(-c3ccc(OC(F)(F)F)cc3)c(=O)c21` was less than 50 µM.
To `CCn1nnc2c(=O)n(-c3ccc(OC(F)(F)F)cc3)cc(-c3ccc(F)cc3)c21` belongs less than 50 µM; to `Cn1cc(-c2cn(-c3ccc(OC(F)(F)F)cc3)c(=O)c3cc[nH]c23)cn1`, less than 50 µM; to `CN1CCN(CCOc2cc(=O)n(-c3ccc(OC(F)(F)F)cc3)cc2-c2ccc(F)cc2)CC1`, less than 50 µM.
To `Cn1cc(-c2cn(-c3ccc(OC(F)(F)F)cc3)c(=O)cc2OCCN2CCCC2=O)cn1` belongs greater than 200 µM.
As for `COc1cccc(-n2cc(-c3cn[nH]c3)ccc2=O)c1`, the concentration for a half-maximal effect (EC50) is greater than 200 µM.
To `Cc1cc(=O)n(-c2ccc(OC(F)(F)F)cc2)cc1-c1ccc2c(c1)oc(=O)n2CCO` belongs “in the range around 125 µM”; to `Cc1cc(=O)n(-c2ccc(OC(F)(F)F)cc2)cc1-c1c(C)nn(C)c1C`, “in the range around 125 µM”.
To `Cn1cc(-c2cn(-c3ccc(OC(F)(F)F)cc3)c(=O)c3c2NCCC3)cn1` belongs greater than 200 µM.
The value for `O=c1c2nccnc2c(-c2cn[nH]c2)cn1-c1ccc(OC(F)(F)F)cc1` was less than 50 µM; that for `Cn1cc(-c2cn(-c3ccc(Cl)cc3)c(=O)c3c2ccn3C)cn1` was less than 50 µM; that for `Cn1cc(-c2cn(-c3ccc(OC(F)(F)F)cc3)c(=O)cc2NCc2ccc(C#N)cc2F)cn1` was less than 50 µM.
Turning to `Cc1cc(=O)n(-c2ccc(NC(N)=O)cc2)cc1-c1ccc(F)cc1`, the concentration giving a half-maximal response (EC50) result was “in the range around 125 µM”.
For the molecule `Cc1cc(=O)n(-c2ccc3scnc3c2)cc1-c1cnn(C)c1`, the concentration giving a half-maximal response (EC50) is greater than 200 µM.
The value for `CCCOC(=O)Nc1cc(=O)n(-c2ccc(OC(F)(F)F)cc2)cc1-c1ccc(F)cc1` was greater than 200 µM.
The value for `Cc1ccc(F)c(-c2ccccc2)c1` was greater than 200 µM.
Take `Cc1cc(=O)n(-c2ccc(C(F)(F)F)cc2)cc1-c1ccccc1`: the concentration for a half-maximal effect (EC50) is less than 50 µM.
Regarding `Cc1ccc(=S)n(-c2ccc(OC(C)C)cc2)c1`, the concentration for a half-maximal effect (EC50) was greater than 200 µM.
The value for `Cc1nc2c(=O)n(-c3ccc(OC(F)(F)F)cc3)cc(-c3cnn(C)c3)c2n1C` was “in the range around 125 µM”; that for `O=c1ccc(-c2ccc(F)cc2)cn1CCc1ccccc1` was “in the range around 125 µM”.
